# Test results published in patent publication US20230167073A1 (Teijin Pharma Limited, priority 2020, published 2023).
# Target: T1, Human TRPC6 (Homo sapiens, UniProt Q9Y210)
# T1 construct: expressed in transfected cells
# T1 sequence (Q9Y210 1-931): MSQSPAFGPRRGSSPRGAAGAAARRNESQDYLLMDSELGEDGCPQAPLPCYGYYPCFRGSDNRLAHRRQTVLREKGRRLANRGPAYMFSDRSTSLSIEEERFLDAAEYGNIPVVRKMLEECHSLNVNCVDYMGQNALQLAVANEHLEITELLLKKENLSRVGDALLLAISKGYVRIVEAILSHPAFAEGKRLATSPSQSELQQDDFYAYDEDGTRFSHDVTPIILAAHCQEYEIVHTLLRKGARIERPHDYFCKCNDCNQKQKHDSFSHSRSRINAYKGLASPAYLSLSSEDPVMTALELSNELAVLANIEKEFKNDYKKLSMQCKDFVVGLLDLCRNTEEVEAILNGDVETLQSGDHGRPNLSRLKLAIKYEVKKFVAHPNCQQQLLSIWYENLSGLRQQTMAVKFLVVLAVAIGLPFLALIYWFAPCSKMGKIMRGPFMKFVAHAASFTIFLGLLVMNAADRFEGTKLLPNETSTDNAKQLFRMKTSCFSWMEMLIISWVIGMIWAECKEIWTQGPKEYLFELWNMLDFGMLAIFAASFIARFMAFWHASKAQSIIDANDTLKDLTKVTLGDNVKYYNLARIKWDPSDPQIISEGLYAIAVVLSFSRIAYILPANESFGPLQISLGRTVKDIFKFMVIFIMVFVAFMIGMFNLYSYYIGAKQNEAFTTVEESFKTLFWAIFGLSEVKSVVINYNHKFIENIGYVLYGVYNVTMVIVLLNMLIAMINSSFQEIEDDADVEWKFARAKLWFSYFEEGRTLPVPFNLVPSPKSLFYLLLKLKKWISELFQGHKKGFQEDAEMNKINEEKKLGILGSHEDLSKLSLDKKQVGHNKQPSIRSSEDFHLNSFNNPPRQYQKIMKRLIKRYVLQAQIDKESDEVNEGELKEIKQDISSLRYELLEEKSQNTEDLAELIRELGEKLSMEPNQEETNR
# Assay: Evaluation of TRPC6 channel inhibitory activity (1), FLIPR Calcium 5 Assay Kit, OAG stimulation (Compound Nos. 1-1293)
# Type: cell-based
# Settings: Human TRPC6 stably-expressing cells, OAG 30 μM, FLIPR Calcium 5 Assay Kit; read-out: Inhibitory activity (pIC50 class) (converted)
# Procedure, shortened: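 Cells stably expressing human TRPC6, plated 24 h before, were loaded 30 min with Calcium 5 dye plus probenecid in HEPES-HBSS. Compound was added 20 min before OAG (30 μM final) and fluorescence tracked on FLIPR. Inhibition normalised to no-compound and no-compound/no-OAG wells; pIC50 from four-parameter fit, reported as +/++/+++ categories.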
row,SMILES,IC50 [µM]
1,"Cn1nc(-c2ccc(F)cc2)cc1Oc1cc(C#N)ccc1-c1ccc(CCN)nc1 [Compound 184, 4-[6-(2-aminoethyl)pyridin-3-yl]-3-[5-(4-fluorophenyl)-2-methylpyrazol-3-yl]oxybenzonitrile]",0.01 to 1
2,"Cn1nc(-c2ccc(F)cc2)cc1Oc1cc(C#N)ccc1-c1ccc(CCN)cn1 [Compound 185, 4-[5-(2-aminoethyl)pyridin-2-yl]-3-[5-(4-fluorophenyl)-2-methylpyrazol-3-yl]oxybenzonitrile]",< 0.01
3,"Cn1nc(-c2cccc(F)c2)cc1Oc1cc(C#N)ccc1-c1ccc(CCN)cc1 [Compound 186, 4-[4-(2-aminoethyl)phenyl]-3-[5-(3-fluorophenyl)-2-methylpyrazol-3-yl]oxybenzonitrile]",< 0.01
4,"Cn1nc(-c2cccc(F)c2)cc1Oc1cc(C#N)ccc1-c1ccc(CCN)nc1 [Compound 187, 4-[6-(2-aminoethyl)pyridin-3-yl]-3-[5-(3-fluorophenyl)-2-methylpyrazol-3-yl]oxybenzonitrile]",< 0.01
5,"Cc1nc(Oc2cc(C#N)ccc2-c2ccc(CCN)nc2)cc(-c2cccnc2)n1 [Compound 188, 4-[6-(2-aminoethyl)pyridin-3-yl]-3-(2-methyl-6-pyridin-3-ylpyrimidin-4-yl)oxybenzonitrile]",> 1
6,"Cc1ccc(-c2cc(Oc3cc(C#N)ccc3-c3ccc(CCN)nc3)nc(C)n2)nc1 [Compound 189, 4-[6-(2-aminoethyl)pyridin-3-yl]-3-[2-methyl-6-(5-methylpyridin-2-yl)pyrimidin-4-yl]oxybenzonitrile]",> 1
7,"Cc1nc(Oc2cc(C#N)ccc2-c2ccc(CCN)nc2)cc(-c2ccc(F)cc2)n1 [Compound 190, 4-[6-(2-aminoethyl)pyridin-3-yl]-3-[6-(4-fluorophenyl)-2-methylpyrimidin-4-yl]oxybenzonitrile]",0.01 to 1
8,"Cc1nc(Oc2cc(C#N)ccc2-c2ccc3c(c2)C(O)C(N)CC3)cc(-c2ccccc2)n1 (stereo not drawn) [Compound 191, 4-(7-amino-8-hydroxy-5,6,7,8-tetrahydronaphthalen-2-yl)-3-(2-methyl-6-phenylpyrimidin-4-yl)oxybenzonitrile]",> 1
9,"Cc1nc(Oc2cc(C#N)ccc2-n2ncc3c2CCC(N)C3O)cc(-c2ccccc2)n1 (stereo not drawn) [Compound 192, 4-(5-amino-4-hydroxy-4,5,6,7-tetrahydroindazol-1-yl)-3-(2-methyl-6-phenylpyrimidin-4-yl)oxybenzonitrile]",0.01 to 1
10,"Cc1nc(Oc2cc(C#N)ccc2-n2cc3c(n2)CCC(N)C3O)cc(-c2ccccc2)n1 (stereo not drawn) [Compound 193, 4-(5-amino-4-hydroxy-4,5,6,7-tetrahydroindazol-2-yl)-3-(2-methyl-6-phenylpyrimidin-4-yl)oxybenzonitrile]",> 1
11,"Cc1nc(Oc2cc(C#N)ccc2-c2cccc(CCN)c2)cc(N2CCOCC2)n1 [Compound 194, 4-[3-(2-aminoethyl)phenyl]-3-(2-methyl-6-morpholin-4-ylpyrimidin-4-yl)oxybenzonitrile]",> 1
12,"Cc1nc(Oc2cc(C#N)ccc2-c2csc(C(O)CN)n2)cc(-c2ccccc2)n1 (stereo not drawn) [Compound 195, 4-[2-(2-amino-1-hydroxyethyl)-1,3-thiazol-4-yl]-3-(2-methyl-6-phenylpyrimidin-4-yl)oxybenzonitrile]",0.01 to 1
13,"N#Cc1ccc(-n2ccc(C(O)CN)n2)c(Oc2cnnc(-c3ccc[nH]3)c2)c1 (stereo not drawn) [Compound 196, 4-[3-(2-amino-1-hydroxyethyl)pyrazol-1-yl]-3-[6-(1H-pyrrol-2-yl)pyridazin-4-yl]oxybenzonitrile]",0.01 to 1
14,"Cc1cc(Oc2cc(C#N)ccc2-c2ccc(C(O)CN)cc2)cc(N2CCOCC2)n1 (stereo not drawn) [Compound 197, 4-[4-(2-amino-1-hydroxyethyl)phenyl]-3-(2-methyl-6-morpholin-4-ylpyridin-4-yl)oxybenzonitrile]",< 0.01

# More lines, now with the values ahead:
row,IC50 [µM],SMILES
1,< 0.01,"Cn1nc(-c2cccc(F)c2)cc1Oc1cc(C#N)ccc1-c1ccc(C(O)CN)cc1 (stereo not drawn) [Compound 198, 4-[4-(2-amino-1-hydroxyethyl)phenyl]-3-[5-(3-fluorophenyl)-2-methylpyrazol-3-yl]oxybenzonitrile]"
2,< 0.01,"Cn1nc(-c2cccc(F)c2)cc1Oc1cc(C#N)ccc1-c1ccc(CCN)cn1 [Compound 199, 4-[5-(2-aminoethyl)pyridin-2-yl]-3-[5-(3-fluorophenyl)-2-methylpyrazol-3-yl]oxybenzonitrile]"
3,> 1,"Cc1nc(Oc2cc(C#N)ccc2-n2cnc(C(O)CN)c2)cc(-c2ccccc2)n1 (stereo not drawn) [Compound 200, 4-[4-(2-amino-1-hydroxyethyl)imidazol-1-yl]-3-(2-methyl-6-phenylpyrimidin-4-yl)oxybenzonitrile]"
4,> 1,"Cc1cc(Oc2cc(C#N)ccc2-c2ccc(C(=O)CN)cc2)cc(-c2ccccc2)n1 [Compound 201, 4-[4-(2-aminoacetyl)phenyl]-3-(2-methyl-6-phenylpyridin-4-yl)oxybenzonitrile]"
5,< 0.01,"Cn1nc(C2CC2)cc1Oc1cc(C#N)ccc1-c1ccc(CCN)cn1 [Compound 202, 4-[5-(2-aminoethyl)pyridin-2-yl]-3-(5-cyclopropyl-2-methylpyrazol-3-yl)oxybenzonitrile]"
6,0.01 to 1,"Cc1cc(Oc2cc(C#N)ccc2-n2ccc(C(O)CN)n2)cc(-c2ccccc2)n1 (stereo not drawn) [Compound 203, 4-[3-(2-amino-1-hydroxyethyl)pyrazol-1-yl]-3-(2-methyl-6-phenylpyridin-4-yl)oxybenzonitrile]"
7,< 0.01,"Cn1nc(-c2ccccc2)cc1Oc1cc(C#N)ccc1-n1cc(C(O)CN)cn1 (stereo not drawn) [Compound 204, 4-[4-(2-amino-1-hydroxyethyl)pyrazol-1-yl]-3-(2-methyl-5-phenylpyrazol-3-yl)oxybenzonitrile]"
8,< 0.01,"Cc1cccc(-c2cc(Oc3cc(C#N)ccc3-n3cc([C@@H](O)CN)cn3)nc(C)n2)c1 [Compound 205, 4-[4-[(1R)-2-amino-1-hydroxyethyl]pyrazol-1-yl]-3-[2-methyl-6-(3-methylphenyl)pyrimidin-4-yl]oxybenzonitrile]"
9,< 0.01,"Cc1cccc(-c2cc(Oc3cc(C#N)ccc3-n3cc([C@H](O)CN)cn3)nc(C)n2)c1 [Compound 206, 4-[4-[(1S)-2-amino-1-hydroxyethyl]pyrazol-1-yl]-3-[2-methyl-6-(3-methylphenyl)pyrimidin-4-yl]oxybenzonitrile]"
10,0.01 to 1,"Cn1nc(-c2ccccc2)cc1Oc1cc(C#N)ccc1-c1ccc(CCNC2COC2)cn1 [Compound 207, 3-(2-methyl-5-phenylpyrazol-3-yl)oxy-4-[5-[2-(oxetan-3 ylamino)ethyl]pyridin-2-yl]benzonitrile]"
11,> 1,"Cc1nc(Oc2cc(C#N)ccc2-n2cc(N3CCNCC3=O)cn2)cc(C2CCCC2)n1 [Compound 208, 3-(6-Cyclopentyl-2-methylpyrimidin-4-yl)oxy-4-[4-(2-oxopiperazin-1-yl)pyrazol-1-yl]benzonitrile]"
12,> 1,"Cc1nc(Oc2cc(C#N)ccc2-n2cc(N3CCCNCC3=O)cn2)cc(C2CCCC2)n1 [Compound 209, 3-(6-cyclopentyl-2-methylpyrimidin-4-yl)oxy-4-[4-(2-oxo-1,4-diazepan-1-yl)pyrazol-1-yl]benzonitrile]"
13,> 1,"Cc1nc(Oc2cc(C#N)ccc2-n2cc(N3CCNCCC3=O)cn2)cc(C2CCCC2)n1 [Compound 210, 3-(6-cyclopentyl-2-methylpyrimidin-4-yl)oxy-4-[4-(7-oxo-1,4-diazepan-1-yl)pyrazol-1-yl]benzonitrile]"
